Test results: US20190099414A1, “THERAPEUTIC COMPOSITIONS AND METHODS” (UNIVERSITY OF IOWA RESEARCH FOUNDATION, priority 2015, published 2019)

Experiments:
[1] = system: rabbit joint capsule fibroblasts; assay: Collagen gel compaction assay; assay type: cell-based; details: collagen gel seeded with rabbit joint capsule fibroblasts; final blebbistatin concentration 50 μg/mL, treated 24 hours, imaged up to 48 hours
Description: The effect of blebbistatin on rabbit joint capsule fibroblasts (RJCF) was analyzed using a collagen gel compaction assay. RJCFs between passage 4 and 9 were trypsinized using 0.1% trypsin/EDTA for 5 minutes at 37° C. and then the added trypsin was neutralized using DMEM containing 10% FBS. The cell suspension was centrifuged at 230 g for 5 minutes and resuspended in a desired volume of 10% FBS containing DMEM. The collagen gels loaded with RJCFs were prepared by mixing 10×PBS containing phenol red, 1N NaOH, rat tail collagen-I, and the cell suspension to give a final yield of 1×10^6 cells/mL and 2 mg/mL collagen. 500 μL of the collagen gel mixture was added to each well in a 24 well plate and allowed to gelate for 30 minutes in an incubator. After 30 minutes 500 μL of DMEM containing 10% FBS and 50 μg/mL ascorbic acid was added to each well and incubated for 24 hours. After 24 hours, 2.5 mg of blank and blebbistatin loaded nanoparticles dispersed in 50 μL of DMEM or 50 μL of pure drug dissolved in DMSO (1 mg/mL) or 50 μL DMSO or 50 μL PBS were added to each gel so that the final blebbistatin concentration was 50 μg/mL or a corresponding solvent volume for controls. […] Images were acquired at 0, 0.15, 0.5, 1, 2, 3, 4, 5, 6, 7, 24 and 48 hours, and the amount of compaction was measured with ImageJ.

[2] = system: Rho/ROCK pathway; assay: Real time PCR analysis of Rho/ROCK pathway gene expression; assay type: cell-based; details: rabbit joint capsule fibroblasts in collagen gels; 50 μg/mL blebbistatin; 0, 5, 24 and 48 hours; versus blank PLGA particle control
Description: Inhibition of Rho/ROCK pathway in RJCFs by blebbistatin nanoparticle was studied using quantitative real-time PCR (qPCR) Two groups of collagen gels were prepared in the same way as described in the collagen gel compaction assay. One group of gels (n=3) was treated with 2.5 mg of blebbistatin nanoparticles dispersed in 50 μL of DMEM so that the final concentration of blebbistatin was 50 μg/mL. The other control group gels (n=3) were also treated in the same way but instead with blank PLGA particles. Measurements were made at four terminal time points of 0, 5, 24 and 48 hours. After each time point the gels were washed twice with DMEM and stored at −80° C. for qPCR analysis.
Total cell RNA was extracted with an RNeasy Mini Kit (Qiagen, Valencia, Calif., USA), by following the manufacturer's protocol. Cells were then homogenized (QIAshredder column, Qiagen), and using an RNeasy column, total RNA was eluted out. The quantity and the quality of the isolated RNA were measured from the absorbance at A260 nm and the ratio of A260/A280 respectively. […] Steady-state mRNA levels were normalized to 18s rRNA and calculated relative to untreated controls by “the relative quantitation using comparative CT” in Multiplex Reactions (PerkinElmer).

[3] = Raman spectroscopy and differential scanning calorimetry of drug-loaded particles; assay type: physicochemical; details: Raman shifts and DSC melting point unchanged after loading
Description: Confocal Raman spectroscopy was used to characterize the distribution of blebbistatin in the PLGA nanoparticles. Spectra of pure blebbistatin, pure PLGA, blank nanoparticles, and blebbistatin loaded nanoparticles were produced with the 488 nm line of an Ar+ laser (Coherent, Inova 70, 30 mW). After autoalignment of the instrument, the laser beam was focused on the samples using an inverted optical microscope equipped with a 50× objective lens. Spectra were recorded between 80 cm^−1 to 1300 cm^−1 at high resolution. Spectra were spatially resolved at each pixel by passing the backscattered image of the Ar+ laser through a pinhole of diameter 100 μm onto a cooled CCD camera.
Differential scanning calorimetry was employed to analyze the solid state and thermal properties of the nanoparticles. Approximately 2 mg of either lyophilized blank PLGA nanoparticles or drug-loaded PLGA nanoparticles were weighed and hermetically sealed into aluminum pans. An empty aluminum pan was used as a reference. Sample were heated from 25° C. to 300° C. at a rate of 10° C./min under a stream of nitrogen gas flow to produce thermograms for extracting the transition temperature (Tc) and enthalpy of transition (AH).

[4] = system: rabbit joint capsule fibroblasts; assay: Fluorescent microsphere displacement assay with time-lapse imaging; assay type: cell-based
Description: The effect of blebbistatin on cell ability to compact gels was analyzed by monitoring the displacement of fluorescent microspheres. Cell seeded collagen gels were prepared as described above with the addition of a suspension of fluorescent 4 μm microspheres to achieve a concentration of 5 million microspheres/mL. Approximately, 500 μL of this solution were then carefully added around a 6 mm polydimethysiloxane (PDMS) post in a circular PDMS mold with a 20 mm diameter attached to a 35 mm glass bottom Petri dish. This construct was prepared with the purpose of preventing movement of the gel during imaging, after release. Gels were then incubated at 37° C. for 30 minutes to allow polymerization. Once the gels had polymerized, DMEM supplemented with 10% FBS, 1% Penicillin/Streptomyocin, and 0.1% Amphoterecin B was added. After incubation for 24 hours, the gels were treated with either blebbistatin PLGA particles or with blank PLGA particles for 24 hours. Gels were carefully detached from the surrounding PDMS mold and were rinsed twice using DMEM. […] Microsphere displacements were quantified by use of a custom algorithm using digital image correlation to track the movement of individual particles from frame to frame.

Cc1ccc2c(c1)C(=O)C1(O)CCN(c3ccccc3)C1=N2 (centres unmarked) [blebbistatin, Blebbistatin]
gel area after compaction [1]: 87%±1%
RhoA, ROCK1 and ROCK2 gene expression (qPCR) [2]: initial increase in RhoA, ROCKI, and ROCK II genes treated with blebbistatin that then decrease to comparable levels as control
stability of the drug after loading into the particles [3]: stable and no significant physical/chemical changes occurred
fluorescent microsphere displacements (cell force generation) ([4]; cell-seeded collagen gels treated 24 hours, compared with control gels): significantly lower
fibroblast morphology (time-lapse imaging) ([4]; fibroblasts in collagen gels, compared with untreated gels): more spherical fibroblasts
